Source: PubChem BioAssay (NCI)
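Briefly, cells in 96-well plates were exposed to five compound concentrations for 48 h, and endpoints were estimated by linear interpolation. TGI marks complete inhibition of growth.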

What was measured:
Assay in all cases: growth of human tumour cells (NCI), 48 h
[1] = tested on: 786-0 renal
[2] = tested on: A498 renal
[3] = tested on: A549 NSCLC
[4] = tested on: ACHN renal
[5] = tested on: BT-549 breast
[6] = tested on: CAKI-1 renal
[7] = tested on: CCRF-CEM leukemia
[8] = tested on: COLO 205 colon
[9] = tested on: DU-145 prostate
[10] = tested on: EKVX NSCLC
[11] = tested on: HCC-2998 colon
[12] = tested on: HCT-116 colon
[13] = tested on: HCT-15 colon
[14] = tested on: HL-60(TB) leukemia
[15] = tested on: HOP-62 NSCLC
[16] = tested on: HOP-92 NSCLC
[17] = tested on: HS 578T breast
[18] = tested on: HT29 colon
[19] = tested on: IGROV1 ovarian
[20] = tested on: K-562 leukemia
[21] = tested on: KM12 colon
[22] = tested on: LOX IMVI melanoma
[23] = tested on: M14 melanoma
[24] = tested on: MALME-3M melanoma
[25] = tested on: MCF7 breast
[26] = tested on: MDA-MB-231 breast
[27] = tested on: MDA-MB-435
[28] = tested on: MDA-N
[29] = tested on: MOLT-4 leukemia
[30] = tested on: NCI-H226 lung
[31] = tested on: NCI-H23 lung
[32] = tested on: NCI-H460 lung
[33] = tested on: NCI-H522 lung
[34] = tested on: NCI/ADR-RES ovarian
[35] = tested on: OVCAR-3 ovarian
[36] = tested on: OVCAR-4 ovarian
[37] = tested on: OVCAR-5 ovarian
[38] = tested on: OVCAR-8 ovarian
[39] = tested on: PC-3 prostate
[40] = tested on: RPMI-8226 leukemia
[41] = tested on: RXF 393 renal
[42] = tested on: SF-268 CNS
[43] = tested on: SF-295 CNS
[44] = tested on: SF-539 CNS
[45] = tested on: SK-MEL-2 melanoma
[46] = tested on: SK-MEL-28 melanoma
[47] = tested on: SK-MEL-5 melanoma
[48] = tested on: SK-OV-3 ovarian
[49] = tested on: SN12C renal
[50] = tested on: SNB-19 CNS
[51] = tested on: SNB-75 CNS
[52] = tested on: SR leukemia
[53] = tested on: SW-620 colon
[54] = tested on: TK-10 renal
[55] = tested on: U251 CNS
[56] = tested on: UACC-257 melanoma
[57] = tested on: UACC-62 melanoma
[58] = tested on: UO-31 renal
[59] = tested on: T-47D breast

`Cc1cccc2c1c(=O)c1c(O)cc(O)cc1n2C` gave a TGI [1] greater than 100 µM, a TGI [2] greater than 100 µM and a TGI [3] greater than 100 µM. The TGI [4] was greater than 100 µM, the TGI [5] was greater than 100 µM and the TGI [6] was greater than 100 µM. The TGI [7] was greater than 100 µM, the TGI [8] was greater than 100 µM and the TGI [9] was greater than 100 µM. The TGI [10] was greater than 100 µM, the TGI [11] was greater than 100 µM and the TGI [12] was greater than 100 µM. The TGI [13] was greater than 100 µM, the TGI [14] was greater than 100 µM and the TGI [15] was greater than 100 µM. For the same compound, the TGI [16] was greater than 100 µM, the TGI [17] was greater than 100 µM and the TGI [18] was greater than 100 µM. It also gave a TGI [19] greater than 100 µM, a TGI [20] greater than 100 µM and a TGI [21] greater than 100 µM. It also gave a TGI [22] greater than 100 µM, a TGI [23] greater than 100 µM and a TGI [24] greater than 100 µM. It also gave a TGI [25] greater than 100 µM, a TGI [26] greater than 100 µM and a TGI [27] greater than 100 µM. It also gave a TGI [28] greater than 100 µM, a TGI [29] greater than 100 µM and a TGI [30] greater than 100 µM. The TGI [31] was greater than 100 µM, the TGI [32] was greater than 100 µM and the TGI [33] was greater than 100 µM. For the same compound, the TGI [34] was greater than 100 µM, the TGI [35] was greater than 100 µM and the TGI [36] was greater than 100 µM. For the same compound, the TGI [37] was greater than 100 µM, the TGI [38] was greater than 100 µM and the TGI [39] was greater than 100 µM. It also gave a TGI [40] greater than 100 µM, a TGI [41] greater than 100 µM and a TGI [42] greater than 100 µM. It also gave a TGI [43] greater than 100 µM, a TGI [44] greater than 100 µM and a TGI [45] greater than 100 µM. The TGI [46] was greater than 100 µM, the TGI [47] was greater than 100 µM and the TGI [48] was greater than 100 µM. It also gave a TGI [49] greater than 100 µM, a TGI [50] greater than 100 µM and a TGI [51] greater than 100 µM. For the same compound, the TGI [52] was greater than 100 µM, the TGI [53] was greater than 100 µM and the TGI [54] was greater than 100 µM. For the same compound, the TGI [55] was greater than 100 µM, the TGI [56] was greater than 100 µM and the TGI [57] was greater than 100 µM.

`CCOC(=O)c1cc(C2CCN(Cc3ccccc3)C2=S)c(C(=O)C=[N+]=[N-])[nH]1` (stereo unspecified) gave a TGI [1] of 85.4 µM, a TGI [2] greater than 100 µM and a TGI [3] greater than 100 µM. It also gave a TGI [4] greater than 100 µM, a TGI [5] of 67.6 µM and a TGI [6] greater than 100 µM. It also gave a TGI [7] greater than 100 µM, a TGI [8] greater than 100 µM and a TGI [9] greater than 100 µM. It also gave a TGI [10] of 89.6 µM, a TGI [11] greater than 100 µM and a TGI [12] greater than 100 µM. For the same compound, the TGI [13] was 53.8 µM, the TGI [15] was greater than 100 µM and the TGI [16] was greater than 100 µM. It also gave a TGI [17] greater than 100 µM, a TGI [18] greater than 100 µM and a TGI [19] greater than 100 µM. For the same compound, the TGI [20] was greater than 100 µM, the TGI [21] was greater than 100 µM and the TGI [23] was 48.7 µM. It also gave a TGI [24] of 66.3 µM, a TGI [25] of 40.4 µM and a TGI [26] greater than 100 µM. For the same compound, the TGI [27] was greater than 100 µM, the TGI [28] was 49.4 µM and the TGI [29] was greater than 100 µM. It also gave a TGI [31] of 53.4 µM, a TGI [32] of 64.1 µM and a TGI [33] of 46.7 µM. The TGI [34] was 79.6 µM, the TGI [35] was 45.1 µM and the TGI [36] was greater than 100 µM. The TGI [37] was greater than 100 µM, the TGI [38] was greater than 100 µM and the TGI [39] was greater than 100 µM. The TGI [40] was greater than 100 µM, the TGI [41] was 75.5 µM and the TGI [42] was 73.9 µM. It also gave a TGI [43] of 66.8 µM, a TGI [45] of 63 µM and a TGI [46] of 51.5 µM. The TGI [47] was 34.5 µM, the TGI [48] was greater than 100 µM and the TGI [50] was greater than 100 µM. For the same compound, the TGI [51] was 91.6 µM, the TGI [53] was greater than 100 µM and the TGI [54] was greater than 100 µM. It also gave a TGI [55] greater than 100 µM, a TGI [56] of 71.4 µM and a TGI [57] of 50.7 µM. It also gave a TGI [58] of 57.5 µM.

In the case of `O=C(C/C=C/c1ccccc1)c1ccccc1`, the TGI [1] is reported as 48.8 µM, the TGI [2] is reported as 36 µM and the TGI [3] is reported as 26 µM. For the same compound, the TGI [4] was 35.8 µM, the TGI [6] was 31.7 µM and the TGI [7] was 64.8 µM. The TGI [8] was 56.6 µM, the TGI [9] was 31 µM and the TGI [10] was greater than 100 µM. The TGI [11] was 33.4 µM, the TGI [12] was 33.1 µM and the TGI [13] was 37 µM. For the same compound, the TGI [14] was 66 µM, the TGI [15] was 73.7 µM and the TGI [16] was greater than 100 µM. For the same compound, the TGI [17] was 58.6 µM, the TGI [18] was 65.5 µM and the TGI [19] was greater than 100 µM. The TGI [21] was 25.6 µM, the TGI [22] was 30.3 µM and the TGI [23] was 32.2 µM. The TGI [25] was 32.7 µM, the TGI [27] was 42.5 µM and the TGI [28] was 50.9 µM. For the same compound, the TGI [29] was 61.6 µM, the TGI [30] was 66.6 µM and the TGI [31] was 31.6 µM. For the same compound, the TGI [32] was 60.6 µM, the TGI [33] was 34.1 µM and the TGI [34] was 33.7 µM. The TGI [35] was greater than 100 µM, the TGI [37] was greater than 100 µM and the TGI [38] was 49.1 µM. The TGI [40] was 83.5 µM, the TGI [41] was 34 µM and the TGI [42] was 56.8 µM. For the same compound, the TGI [43] was greater than 100 µM, the TGI [44] was 56.6 µM and the TGI [46] was 53.6 µM. The TGI [47] was 40.8 µM, the TGI [48] was greater than 100 µM and the TGI [49] was 60.9 µM. The TGI [51] was 69.2 µM, the TGI [52] was 49.9 µM and the TGI [53] was greater than 100 µM. For the same compound, the TGI [59] was 42.7 µM, the TGI [54] was 65.6 µM and the TGI [55] was 29.9 µM. The TGI [56] was 72.1 µM, the TGI [57] was 26.4 µM and the TGI [58] was 28.2 µM.

`CCOC(=O)C(OP(=O)(OCC)OCC)C(F)(F)F` (stereo unspecified) showed a TGI [2] greater than 100 µM, a TGI [4] greater than 100 µM and a TGI [5] greater than 100 µM. The TGI [7] was greater than 100 µM, the TGI [9] was greater than 100 µM and the TGI [10] was greater than 100 µM. For the same compound, the TGI [11] was greater than 100 µM, the TGI [12] was greater than 100 µM and the TGI [13] was greater than 100 µM. The TGI [14] was greater than 100 µM, the TGI [15] was greater than 100 µM and the TGI [17] was greater than 100 µM. It also gave a TGI [18] greater than 100 µM, a TGI [20] greater than 100 µM and a TGI [21] greater than 100 µM. For the same compound, the TGI [22] was greater than 100 µM, the TGI [23] was greater than 100 µM and the TGI [24] was greater than 100 µM. The TGI [25] was greater than 100 µM, the TGI [26] was greater than 100 µM and the TGI [27] was greater than 100 µM. For the same compound, the TGI [28] was greater than 100 µM, the TGI [29] was greater than 100 µM and the TGI [30] was greater than 100 µM. It also gave a TGI [31] greater than 100 µM, a TGI [32] greater than 100 µM and a TGI [33] greater than 100 µM. The TGI [35] was greater than 100 µM, the TGI [37] was greater than 100 µM and the TGI [40] was greater than 100 µM. It also gave a TGI [41] greater than 100 µM, a TGI [42] greater than 100 µM and a TGI [44] greater than 100 µM. The TGI [45] was greater than 100 µM, the TGI [46] was greater than 100 µM and the TGI [48] was greater than 100 µM. The TGI [49] was greater than 100 µM, the TGI [50] was greater than 100 µM and the TGI [51] was greater than 100 µM. For the same compound, the TGI [52] was greater than 100 µM, the TGI [59] was greater than 100 µM and the TGI [54] was greater than 100 µM. For the same compound, the TGI [55] was greater than 100 µM, the TGI [56] was greater than 100 µM and the TGI [57] was greater than 100 µM. The TGI [58] was greater than 100 µM.
